Results: patent US7253207B2, “Quinones as disease therapies” (Cellgate, Inc., priority 1999, dated 2007)
Where two headings read alike, the source gives them in different places. *1 amine or outer side, *2 acyl side, *3 side chain or, on linkers, in order; H or OH if unused. Where a SMILES comes first, the peptide text is derived from it. [ ]: non-standard residue; d: D form. The star is where a group is joined. X1 = CC1(C)OC2=C(CC1O*)C(=O)C(=O)c1ccccc12; Morpholide = C1CN(*)CCO1; CO = O=C([*:1])[*:2]; βAla = NCCC(=O)O

Legend:
PC-3 = assay: MTT assay, PC-3 prostate tumor cells; type: cell-based, human
Protocol: (§1) Cell Culture: The human lung adenocarcinoma cell line, A549, and human prostatic cancer cell line, DUPRO, were a gift from Dr. M. Eileen Dolan, University of Chicago, Department of Medicine. A549 was grown in Ham's F-12K medium (Fisher Scientific, Itasca, Ill.) supplemented with 10% fetal bovine serum and 2 mM L-glutamine. DUPRO was grown in RPMI-1640 supplemented with 10% fetal bovine serum. The human colon carcinoma cell line, HT29, and the human breast carcinoma cell line, MCF7, were obtained from the American Type Culture Collection, Rockville, Md. HT29 cells were grown in McCoy's 5A medium (Gibco, BRL, Gaithersburg, Md.) supplemented with 10% fetal bovine serum. MCF7 cells were grown in Richter's Improved Modified Eagle's medium supplemented with 10% fetal bovine serum and 2.2 g/L sodium bicarbonate. The human prostate adenocarcinoma cell lines, LNCAP, PC-3 and DU145, were gifts from Dr. George Wilding, University of Wisconsin Comprehensive Cancer Center and the Department of Medicine, and were grown in Dulbecco's Modified Eagle's medium supplemented with a 5% fetal bovine serum. The malignant glioma cell line, U251MG NCI was obtained from the brain tumor tissue bank at the University of California, San Francisco Department of Neurosurgery, and was grown in Dulbecco's Modified Eagle's medium supplemented with 10% fetal bovine serum. DUPRO, A549 and MCF7 cells were grown in 100 units/mL penicillin and 100 μg/mL streptomycin. HT29 and U251MG NCI cells were grown in 50 g/μL gentamycin. LNCAP, PC-3 and DU145 cells were maintained in 1% antibiotic antimycotic solution (Sigma, St. Louis, Mo.). All cell cultures were maintained at 37° C. in 5% CO2/95% humidified air.
(§2) MTT assay. Exponentially growing monolayer cells were plated in 96 well plates at a density of 500 cells/well and allowed to grow for 24 h. Serially diluted drug solutions were added such that the final drug concentrations in the treatment media were between 0 and 35 μM. Cells were incubated with drug at either 4 hr or 72 hr. After 4 hr and 72 hr treatment, drugs were removed, fresh media (without) drug (100 uL) was added and cells were incubated for 6 days. After six days, 25 μL of a Dulbecco's phosphate-buffered saline solution containing 5 mg/mL of MTT (Thiazolyl blue) (Sigma) was added to each well and incubated for 4 h at 37° C. Then 100 μL of lysis buffer (20% sodium dodecyl sulfate, 50% N,N-dimethylformamide and 0.8% acetic acid, pH 4.7) was added to each well and incubated for an additional 22 h. A microplate reader (E max, Molecular Devices, Sunnyvale, Calif.) set at 570 nm was used to determine the optical density. Results were plotted as a ratio of the optical density in drug treated wells to the optical density in wells treated with vehicle alone. Plotting and estimation of ID50 values were accomplished with manufacturer supplied software.

DUPRO = assay: MTT assay, DUPRO prostate tumor cells; type: cell-based, human; conditions: Table 1, treatment time not stated
Protocol: as §1
MTT assay. Exponentially growing monolayer cells were plated in 96 well plates at a density of 500 cells/well and allowed to grow for 24 h. Serially diluted drug solutions were added such that the final drug concentrations in the treatment media were between 0 and 35 μM. […] A microplate reader (E max, Molecular Devices, Sunnyvale, Calif.) set at 570 nm was used to determine the optical density. […]

DU145 = assay: MTT assay, DU145 prostate tumor cells; type: cell-based, human; conditions: Table 1; for ID50 (μM) of different prostate cells DU145: MTT assay, treatment time not stated
Protocol: as §1, §2

A549 = assay: MTT assay, A549 lung tumor cells; type: cell-based; conditions: Homo sapiens, read-out: ID50 (μM) of different Tumor cells Lung A549
Protocol: as §1, §2

HT-29 = assay: MTT assay, HT-29 colon tumor cells; type: cell-based; conditions: Homo sapiens, Table 2, treatment time not stated, read-out: ID50 (μM) of different Tumor cells Colon HT-29
Protocol: as §1, §2

U251-MG = assay: MTT assay, U251-MG brain tumor cells; type: cell-based, human
Protocol: as §1, with “The malignant glioma cell line, U251MG NCI was obtained from the brain tumor tissue bank at the University of California, San Francisco Department of Neurosurgery, and was grown in Dulbecco's Modified Eagle's medium supplemented with 10% fetal bovine serum. DUPRO, A549 and MCF7 cells were grown in 100 units/mL penicillin and 100 μg/mL streptomycin. HT29 and U251MG NCI cells were grown in 50 g/μL gentamycin. LNCAP, PC-3 and DU145 cells were maintained in 1% antibiotic antimycotic solution (Sigma, St. Louis, Mo.). All cell cultures were maintained at 37° C. in 5% CO2/95% humidified air.” left out
MTT assay. […] A microplate reader (E max, Molecular Devices, Sunnyvale, Calif.) set at 570 nm was used to determine the optical density. […]

MCF7 = assay: MTT assay, MCF7 breast tumor cells; type: cell-based, human; conditions: Table 2, treatment time not stated
Protocol: as §1, §2

[1] = Homo sapiens, PC-3, Table 1, MTT assay, treatment time not stated, read-out: ID50 (μM) of different prostate cells PC-3
[2] = Table 2, treatment time not stated

Row | IC50 (PC-3; [1]) | IC50 (A549; [2]) | IC50 (HT-29) | SMILES | ID50 (μM) of different Tumor cells Breast MCF7 (MCF7) | other results
1 | 17.1 µM | 17.2 µM | 20 µM | O=C1C=C(OCCCCCCO)c2ccccc2C1=O [SL-11051] |  | ID50 (μM) of different prostate cells DUPRO (DUPRO): 19.3 µM; ID50 (μM) of different prostate cells DU145 (DU145): 11.16 µM
2 |  | 26.9 µM |  | COC(=O)c1cc(NC(=O)CCCCOC2=CC(=O)C(=O)c3ccccc32)cn1C [SL-11052] |  | 
3 |  | 7.39 µM | 2.8 µM | O=C(OCCCCCCOC1=CC(=O)C(=O)c2ccccc21)OCCCCCCOC1=CC(=O)C(=O)c2ccccc21 [SL-11053] |  | 
4 |  | > 31.2 µM | > 31.2 µM | CC(C)(C)C(=O)OC1=CC(=O)C(=O)c2ccccc21 [SL-11054] |  | 
5 |  |  |  | CC1(C)CCC2=C(O1)c1ccccc1C(=O)C2=O [SL-11058] |  | ID50 (μM) of different Tumor cells Brain U251-MG (U251-MG; Table 4, non-quinone compounds): >31.25 µM
6 | 4.3 µM | 15 µM | 10.1 µM | O=C1C=C(OCCCCCNc2c3ccccc3nc3ccccc23)c2ccccc2C1=O [SL-11059, Acridine-quinone] |  | 
7 |  | > 31.2 µM | > 31.2 µM | Cl.O=C1C=C(OCCCCCNC2CCCCC2)c2ccccc2C1=O [SL-11060] | 17.23 µM | ID50 (μM) of different Tumor cells Brain U251-MG (U251-MG; [2]): >31.25 µM
8 | 1.71 µM | 18.6 µM |  | N#Cc1ccc(OCCCCCCOC2=CC(=O)C(=O)c3ccccc32)cc1 [SL-11062] |  | 
9 |  |  |  | CN1CCN(c2ccc3nc(-c4ccc5nc(-c6ccc(O)cc6)[nH]c5c4)[nH]c3c2)CC1 [SL-11063] |  | IC50 (PC-3; Homo sapiens, PC-3, Table 3, non-quinone structure, MTT assay, read-out: ID50 (μM) of different prostate cells PC-3): > 31.2 µM; IC50 (A549; Table 4, non-quinone compounds): > 31.2 µM
10 | 0.7 µM | 9.3 µM |  | O=C1C=C(OCCCCCCCc2ccc(Nc3c4ccccc4nc4ccccc34)cc2)c2ccccc2C1=O [SL-11064, Quinone-anilinoacridine] |  | ID50 (μM) of different prostate cells DUPRO (DUPRO): 2.2 µM; ID50 (μM) of different prostate cells DU145 (DU145): 0.13 µM
11 | 1.4 µM | 2.13 µM |  | O=C1C=C(OCCCCCCOC2=CC(=O)c3ccccc3C2=O)c2ccccc2C1=O [SL-11065] |  | 
12 | > 31.2 µM | > 31.2 µM |  | O=C1C=C(OCCCCCCOc2ccc(OC3OC(CO)C(O)C(O)C3O)cc2)c2ccccc2C1=O (centres unmarked) [SL-11066] |  | 
13 | 1.5 µM | 24 µM |  | O=C1C=C(OCCCCCCOc2ccccc2)c2ccccc2C1=O [SL-11068] |  | 
14 | 4.6 µM |  |  | CN(C)c1cccc(OC(=O)CCCCOC2=CC(=O)C(=O)c3ccccc32)c1 [SL-11074] |  | 
15 | 2 µM |  |  | NCCCCCC(=O)OCCCCCCOC1=CC(=O)C(=O)c2ccccc21 [SL-11075] |  | 
16 | 2.4 µM | 19.8 µM | 6.05 µM | CCCCN(CC1=CC(=O)C(=O)c2ccccc21)C(C)=O [SL-11087] | 4.0 µM | 
17 | > 31.2 µM | > 31.2 µM | > 31.2 µM | CCCCN(CC1=CC(=O)C(=O)c2ccccc21)C(=O)C(F)(F)F [SL-11088] | >31.25 µM | 
18 | 11 µM |  |  | CCCCN/C=C1\C=C(O)C(=O)c2ccccc21 [SL-11089] | >31.25 µM | 
19 | 4.2 µM | > 31.2 µM | 22.1 µM | CCCCN(CC1=C(Br)C(=O)C(=O)c2ccccc21)C(C)=O [SL-11095] | 20.6 µM | 
20 | 3.6 µM | 17.4 µM | 3.4 µM | CCCCN(CC1=CC(=O)C(=O)c2ccccc21)C(=O)CCC(=O)N1CCOCC1 [SL-11096] | 3.8 µM | 
21 | 5.9 µM | 28 µM | 5.7 µM | O=C1C=C(CCCCCCCCc2ccc(Nc3c4ccccc4nc4ccccc34)cc2)c2ccccc2C1=O [SL-11125, Quinone-acridine] | 5.1 µM | ID50 (μM) of different prostate cells DUPRO (DUPRO): 7.9 µM; ID50 (μM) of different prostate cells DU145 (DU145): 0.13 µM
22 |  |  |  | CC(C)CC(NC(=O)C(CCCCN)NC(=O)C(CO)NC(=O)N1CCOCC1)C(=O)NC(CCC(N)=O)C(=O)NCCC(=O)OC1CC2=C(OC1(C)C)c1ccccc1C(=O)C2=O (stereo not drawn) [SL-11147, Morpholino-Ser-Lys-Leu-Gln-β-Ala-β-Lapachone] ({Morpholide-CO}-SKLQ[βAla]-X1; configuration not given here) |  | IC50 (PC-3; Table 1, 4 hr, read-out: ID50 (μM) PC-3 (4 hr)): 6.3 µM; IC50 (PC-3; Table 1, 72 hr, read-out: ID50 (μM) PC-3 (72 hr)): 1.24 µM; IC50 (DU145; 4 hr, read-out: ID50 (μM) DU145 (4 hr)): 28.1 µM; IC50 (DU145; 72 hr, read-out: ID50 (μM) DU145 (72 hr)): 2.01 µM
